Data reported in publication PMC10246433 (Bioorganic & medicinal chemistry letters, 2023).
Entries after “also recorded” stand apart in the source; their conditions may differ.

What was measured:
hNek2 kinase = biological target: T1, hNek2 kinase (Homo sapiens, UniProt P51955); test: ADP-Glo kinase assay, recombinant hNek2; format: biochemical
T1 sequence (P51955 1-445): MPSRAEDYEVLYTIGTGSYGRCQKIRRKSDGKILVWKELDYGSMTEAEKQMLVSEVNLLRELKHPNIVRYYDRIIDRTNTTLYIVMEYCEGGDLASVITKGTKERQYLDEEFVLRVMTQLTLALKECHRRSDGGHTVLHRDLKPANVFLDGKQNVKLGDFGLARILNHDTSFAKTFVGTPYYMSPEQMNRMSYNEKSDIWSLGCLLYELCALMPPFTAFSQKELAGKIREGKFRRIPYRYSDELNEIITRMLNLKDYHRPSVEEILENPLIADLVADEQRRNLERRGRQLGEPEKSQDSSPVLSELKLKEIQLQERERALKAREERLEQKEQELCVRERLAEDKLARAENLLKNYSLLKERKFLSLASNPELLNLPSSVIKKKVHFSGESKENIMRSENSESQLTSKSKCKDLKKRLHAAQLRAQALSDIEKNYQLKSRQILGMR

A549 lung cancer cells [1] = test: MTT cell viability assay, A549; settings: Homo sapiens, A549, read-out: Cell viability EC50, A549 (Figure 6A legend)
[2] = test system: pAkt (Ser-473) in A549 cells; test: Western-blot analysis of pAkt; settings: 24 h treatment, compared to DMSO
A549 lung cancer cells [3] = test: Wound-healing; settings: 24 hr post-treatment, versus vehicle control

Loss of Nek2 inhibitory activity / increase of IC50 compared to V8 (hNek2 kinase) | Selectivity towards Nek2 kinase over the other tested kinases (hNek2 kinase; versus other tested kinases (Table 1)) | EC50 (A549 lung cancer cells [1]) [µM] | Structure (SMILES) | Mode of Nek2 inhibition (hNek2 kinase) | Cellular levels of pAkt (Ser-473) [2] | Cell migration in wound-healing assay (A549 lung cancer cells [3])
> 13 fold | – | – | CS(=O)(=O)N1CCC2(CC1)NCC(=O)N2 [Compound V0-1] | – | – | –
significant loss of potency | – | – | CN1CCC2(CC1)NCC(=O)N2 [Compound V0-3] | – | – | –
– | 9- to 13 fold | 22.7 ± 0.2 | CS(=O)(=O)N1CCC2(CC1)N=C(c1ccc(Br)cc1)C(=O)N2 [Compound V8] | competitive with respect to ATP, reversible, and selective; also recorded: selective, reversible and is not time dependent; also recorded: competitive inhibitor for ATP binding | reduced levels of pAkt (Ser-473) in a dose-dependent manner | migrated slower than the vehicle control; also recorded: Dose-dependent inhibiton of cell migration
